Measurements: patent US8404752B2, “Method of treating traumatic brain injury” (Oxygen Biotherapeutics, Inc., priority 2008, dated 2013)

Assay: Physical properties and gas carrying capacity of perfluoro-tert-butylcyclohexane
Assay type: physicochemical

FC(F)(F)C(C(F)(F)F)(C(F)(F)F)C1(F)C(F)(F)C(F)(F)C(F)(F)C(F)(F)C1(F)F [perfluoro-tert-butylcyclohexane]
CO2 carried: 196 ml of CO2 per 100 ml of PFC | lipophilicity: non-lipophilic | oxygen carried: about 43 mL of oxygen per 100 ml of PFC | water solubility: non-water soluble | Vapor Pressure (@ 25° C.): 3.8 mmHg | Vapor Pressure (@ 37° C.): 4.4 mmHg
